In one assay the test system is Ba/F3-NRAS-G12D cells. Put plainly: Anti-proliferation assay (CellTiter Glo) on Ba/F3-NRAS-G12D. To be noted: Mus musculus, BaF3; 72 h treatment; average with SD (n = 3, duplicate). The assay is classed as cell-based. As for the experimental part:
(§1) Ba/F3-parental, OCI-AML3, U397 cells were purchased from DSMZ. MDA-MB-231, HCT-116, AsPC-1, H358, HT-29, SW480, and DU-145 cells were obtained from KCLB. MDA-MB-468 cells were obtained from ATCC. All cells were maintained in RPMI with 10% FBS and antibiotics. Cells were grown in a humidified 5% CO2 incubator at 37°C. Ba/F3-parental cells were grown in the presence of 10 ng/ml IL-3. NRAS-G12D or NRAS-G12V transformed Ba/F3 cell lines (Ba/F3-NRAS-G12D, and Ba/F3-NRAS-G12V, respectively) were cultured without IL-3, which were established by the procedure described as previously ([30]).
(§2) Approximately 3.0 × 10^3 cells/well were seeded in a 96-well cell culture plate. After stabilization, 1/3 serially diluted compound in DMSO was treated to the cell. […] All GI50 values were obtained in duplicate with three independent assays and averages with standard deviation are presented.

For assay [1], the system named is cancer cells harboring mtRAS. Put plainly: Colony formation assay (2D clonogenic assay). Format: cell-based. To be noted: 0.1 μM, 14 days. As for the experimental part:
Colony formation assay was conducted for 2D clonogenic assay. Approximately 1 × 10^3 cells/well were seeded in 6-well plate. After cellular attachment, indicated concentrations of compounds were treated for 14 days at 37°C. Colonies were stained by crystal violet solution for 30 min. The total area of each well was observed without magnification, and the number of colonies of each well were accessed using ImageJ software (n = 3).
Figure 7 (A–F) Colony formation assay results evaluating the effects of SIJ1795 and SIJ1772 on clonogenic abilities of on cancer cells harboring mtRAS. Cells were incubated with indicated compounds (0.01 µM or 0.1 µM) for 14 days. After staining with crystal violet, colonies were photographed without magnification. (G–L) Number of colonies (% of control) upon treatment with indicated compounds at 0.1 µM concentration were determined by ImageJ (n = 3, respectively). Statistical significance was calculated by using a one-way ANOVA analysis (**p < 0.01, ***p < 0.001, ****p < 0.0001).

The next assay deals with Ba/F3-parental cells. Put plainly: Anti-proliferation assay (CellTiter Glo) on Ba/F3-parental. To be noted: Mus musculus, BaF3; 72 h treatment; with 10 ng/ml IL-3; average with SD (n = 3, duplicate). The assay is classed as cell-based. As for the experimental part: as §1, §2
For assay [2], the system named is cancer cells harboring mtRAS. Put plainly: Soft agar assay (3D clonogenic assay). The assay is classed as cell-based. The note with it: 0.1 μM, 14 days. As for the experimental part: Soft agar assay was conducted for 3D clonogenic assay. On the 0.7% bottom agar, cells were seeded in 6-well plate (5 × 10^3 cells/well) with 0.35% low melting agar (Lonza, #50101) containing the complete media. The cells were treated with indicated compounds for 14 days at 37°C. Colonies were stained by iodonitrotetrazolium chloride (Sigma-Aldrich, I8377) for overnight. The total area of each well was observed without magnification, and the number of colonies of each well were determined using ImageJ software (n = 3).
Figure 8 (A–F) Soft agar assay results for evaluating the effect of SIJ1795 and SIJ1772 on anchorage independent growth abilities on cancer cells harboring mtRAS. Cells were incubated with indicated compounds (0.01 µM or 0.1 µM) for 14 days. After staining with crystal violet, colonies were photographed without magnification. (G–L) Number of colonies (% of control) upon treatment with indicated compounds at 0.1 µM concentration were determined by ImageJ (n = 3, respectively). Statistical significance was calculated by a one-way ANOVA analysis (*p < 0.05, **p < 0.01, ***p < 0.001, ****p < 0.0001).

Assay [3] has as its system MDA-MB-468 (KRAS, NRAS-wt). Put plainly: Anti-proliferation assay on MDA-MB-468. The assay is classed as cell-based. The note with it: for GI50: Homo sapiens, MDA-MB-468, 72 h treatment, average with SD (n = 3, duplicate); for antiproliferative activity fold lower on MDA-MB-468 cells than on HCT-116 harboring KRAS-G13D mutation: MDA-MB-468 versus HCT-116; for times less active on MDA-MB-468 cells harboring wtRAS than on SW480 cells with KRAS-G12V mutation: MDA-MB-468 versus SW480. How it is done: as §1, §2

The next assay deals with Ba/F3-NRAS-G12V cells. Put plainly: Anti-proliferation assay (CellTiter Glo) on Ba/F3-NRAS-G12V. The assay is classed as cell-based. The note with it: Mus musculus, BaF3; 72 h treatment; average with SD (n = 3, duplicate). How it is done:
as §1, §2

The next assay concerns MDA-MB-231 (KRAS-G13D). Put plainly: Anti-proliferation assay on MDA-MB-231. Format: cell-based. The note with it: Homo sapiens, MDA-MB-231; 72 h treatment; average with SD (n = 3, duplicate). As for the experimental part: as §1, §2
In a further assay the test system is OCI-AML3 (NRAS-Q61L). Put plainly: Anti-proliferation assay on OCI-AML3. Format: cell-based, human. The note with it: Homo sapiens, OCI-AML-3; 72 h treatment; average with SD (n = 3, duplicate). How it is done:
as §1, §2

In assay [4] the test system is cleaved PARP in Ba/F3-NRAS-G12D and Ba/F3-NRAS-G12V cells. Put plainly: Western blot, cleaved PARP in Ba/F3 cells transformed with mtRAS. Format: cell-based. To be noted: 1 μM, 24 h. How it is done: Approximately 1 × 10^6 cells per well were seeded in a 6-well cell culture plate. After cell adhesion, each compounds were treated for 2 h with indicated concentration and conducted brief washing twice by ice-cold PBS. Cells were lysed by NP40 buffer (50 mM Tris–HCl pH 7.4, 1% NP40, 2 mM EDTA, 150 mM NaCl) in the presence of protease inhibitor cocktail (Roche, #11873580001) and phosphatase inhibitor cocktail (Roche, #04906837001). Each sample was loaded with same amount of total protein and separated by SDS-PAGE gel. After transferred to nitrocellulose membrane, blocking with 5% skim milk (in TBS/T) was followed. […] Chemiluminescence signals were detected by ImageQuant™ LAS 4000 (GE Healthcare).
Figure 3 (A, B) The effects of SIJ1795 and SIJ1772 on apoptosis induction in Ba/F3 cells transformed with mtRAS (NRAS-G12D and NRAS-G12V). […] (C) Apoptotic cell population (annexin V-positive) was determined by flow cytometry analysis (n = 3). […] Statistical significance was calculated by a one-way ANOVA analysis (**p < 0.01, ***p < 0.001).

These results are taken from publication PMC8695447, “Novel Small Molecules Capable of Blocking mtRAS-Signaling Pathway” (Frontiers in Oncology, 2021).

`Cc1ccc(NC(=O)c2cccc(C(F)(F)F)c2)cc1N1Cc2cnc(Nc3cnn(C4CCN(S(C)(=O)=O)CC4)c3)nc2N(C)C1=O` [SIJ1772, N-(4-Methyl-3-(1-methyl-7-((1-(1-(methylsulfonyl)piperidin-4-yl)-1H-pyrazol-4-yl)amino)-2-oxo-1,4-dihydropyrimido[4,5-d]pyrimidin-3(2H)-yl)phenyl)-3-(trifluoromethyl)benzamide]: the GI50 was 77 ± 16 nM in the assay on Ba/F3-NRAS-G12D cells; 1920 ± 86 nM with Ba/F3-parental cells; 44900 ± 6260 nM in [3]; 96 ± 9 nM in the assay on Ba/F3-NRAS-G12V cells; 58 ± 1 nM in the assay on MDA-MB-231 (KRAS-G13D); 65 ± 29 nM in the assay with OCI-AML3 (NRAS-Q61L). Moreover, in [1], the colony formation entry is recorded as “suppressed”. Besides, the “anchorage independent cell growth” value in [2] was “suppressed”. For the same compound, the “antiproliferative activity fold lower on MDA-MB-468 cells than on HCT-116 harboring KRAS-G13D mutation” value in assay [3] is on record as 1182 fold. For the same compound, the “times less active on MDA-MB-468 cells harboring wtRAS than on SW480 cells with KRAS-G12V mutation” value in assay [3] was 101 times. Further, the “cleaved PARP level in Ba/F3-NRAS-G12D and Ba/F3-NRAS-G12V cells” value in [4] was “increased cleaved PARP level”.

In the case of `CCN1CCN(c2cccc(Nc3ncc4c(n3)N(C)C(=O)N(c3cc(NC(=O)c5cccc(C(F)(F)F)c5)ccc3C)C4)c2)CC1` [SIJ1795, N-(3-(7-((3-(4-Ethylpiperazin-1-yl)phenyl)amino)-1-methyl-2-oxo-1,4-dihydropyrimido[4,5-d]pyrimidin-3(2H)-yl)-4-methylphenyl)-3-(trifluoromethyl)benzamide], the GI50 in the assay with Ba/F3-NRAS-G12D cells amounted to 82 ± 31 nM; in the assay with Ba/F3-parental cells, 2020 ± 419 nM; in assay [3] it was 15700 ± 5310 nM; in the assay on Ba/F3-NRAS-G12V cells, 75 ± 45 nM; in the assay with MDA-MB-231 (KRAS-G13D), 53 ± 8 nM; in the assay on OCI-AML3 (NRAS-Q61L) it was 52 ± 52 nM. For the same compound, the colony formation entry in assay [1] was “suppressed”. Also, the “anchorage independent cell growth” value in assay [2] is listed as “suppressed”. For the same compound, in assay [3], the “antiproliferative activity fold lower on MDA-MB-468 cells than on HCT-116 harboring KRAS-G13D mutation” value was found to be 476 fold. Also, in assay [3], the “times less active on MDA-MB-468 cells harboring wtRAS than on SW480 cells with KRAS-G12V mutation” value was found to be 64 times. For the same compound, the “cleaved PARP level in Ba/F3-NRAS-G12D and Ba/F3-NRAS-G12V cells” value in [4] is on record as “increased cleaved PARP level”.
